Data as given in patent US11713318B2, “Short conjugated oligoelectrolytes and uses thereof” (The Regents Of The University Of California, priority 2018, dated 2023).

How the values were obtained:
J774 (ATCC TIB-67) cells = assay: Cytotoxicity, MTT assay; type: cell-based; conditions: Mus musculus, MTT, 24 hours incubation, read-out: IC50
Procedure: (§1) Before removing the frozen cell stocks from liquid nitrogen, culture medium was pre-warmed to 37° C. The frozen tube was then removed from liquid nitrogen and placed into a 37° C. water bath and shaken gently to thaw the cell stock as quickly as possible. A small portion of the pre-warmed culture medium was added to the cell solution. The cell suspension was then centrifuged at 1000 r/min for 3 minutes. The supernatant was discarded and the cells were resuspended in fresh culture medium.
(§2) NIH 3T3 (ATCC CRL-1658) and Hep G2 (ATCC HB-8065) cells were cultured with DMEM+10% FBS in 100 mm dishes. Cells were lifted for subculture or testing when confluence reached ˜60% by treating with 1× trypsin (incubated for 3 min at 37° C.). J774 (ATCC TIB-67) cells were cultured with DMEM+10% FBS in 100 mm dishes. Cells were lifted for subculture or testing when confluence reached ˜80% using a cell scraper. RAW264.7 (ATCC TIB-71) cells were cultured with DMEM+10% heat-inactivated FBS+1% pen/strep in T75 flasks. Cells were lifted for subculture or testing when confluence reached ˜80% using a cell scraper.
(§3) • 1. Cells were lifted and resuspended in culture medium. The number of cells in the cell suspension was determined using an auto-cell counter: 10 μL of the cell suspension was mixed with 10 μL 1× trypan blue (filtered with 0.2 μm PES filter) and the mixture was loaded onto a cell counting slide. Based on the concentration of viable cells, the cell suspension was further diluted to achieve the desired density. • 2. Cells were seeded in 96 well plates by adding 100 μL final cell suspension column-by-column using a multichannel pipette (5000 cells/well for NIH 3T3, 10000 cells/well for Hep G2, J774 and RAW264.7). The outer wells were block with PBS to reduce the effects of evaporation. One column was filled with only culture medium as a blank. Cells were incubated overnight before adding the test articles. • 3. Test articles were dissolved in 1×PBS (or DMSO) to obtain stocks solution. Stock solutions were pre-warmed before use. […] Serial dilutions (2-fold) of the 10× solutions were made in sterile culture tubes by diluting in 1×PBS (8 dilutions to yield 9 test concentrations). 900 μL of culture media was added to each tube to obtain final drug solution containing 10% PBS (or less than 1% DMSO) for each experimental group. • 4. The original culture medium was gently removed from the 96-well plates using a pipette. 100 μL of the test article solutions prepared in Step 3 were added to rows 2-7 of each column to obtain six replicates for each concentration. Plates were then incubated for 24 hours. • 5. MTT solutions were prepared by dissolving commercial MTT powder in 1×PBS to a concentration of 5 mg/mL. After passing through a 0.22 μm PES filter, the MTT solution was divided into 1 mL portions in sterile centrifuge tubes and stored at −20° C. • 6. MTT stock solutions were removed from the freezer to thaw at room temperature. Before adding MTT solutions, cell cultures were visually inspected and imaged using a microscope (to use as a comparison with MTT results). 10 μL of the 5 mg/mL MTT solution was added to each well and the plate was incubated for 4 hours. • 7. After 4 h incubation, the culture medium/MT solution was removed gently using a pipette. 100 μL of DMSO was added to each well using a multichannel pipette. The 96-well plates were analyzed in a plate reader using the following method: shake for 5 minutes, wait for 30 seconds, and measure absorbance at 570 nm. • 8. Data processing: The average of background Abg was calculated from the blank column. All other data was first treated by subtracting Abg. The average A. and standard deviation Se of each experimental group and the average Ac and standard deviation Sc for control group (with pure culture medium incubation) were then calculated. The cell viability was determined as Ae/Ac×100% and corresponding error as Se/Ae×100%. Significant outliers in any experimental or control group were removed. […]

[1] = test system: Hep G2 (ATCC HB-8065) cells; assay: Cytotoxicity, MTT assay; type: cell-based; conditions: Homo sapiens, HepG2, 24 h, Hep G2; MTT, 24 hours incubation; read-out: IC50
Procedure: as §1, §2, §3

[2] = test system: NIH 3T3 (ATCC CRL-1658) cells; assay: Cytotoxicity, MTT assay; type: cell-based; conditions: Mus musculus, NIH3T3; NIH 3T3; MTT, 24 hours incubation; read-out: IC50
Procedure: as §1, §2, §3

[3] = test system: K. aerogenes (ATCC 13048); assay: MIC broth microdilution method, Table 3; conditions: Klebsiella aerogenes, ATCC13048
[4] = test system: P. aeruginosa CDC0248 (MDR); assay: MIC against resistant strains, Tables 5a-5d; type: cell-based; conditions: Pseudomonas aeruginosa, n = 3
Procedure: (§4) Compounds described herein were evaluated for growth inhibition against a variety of bacterial species, including strains that have developed resistance to common antibacterial treatments, according to the procedure described herein, or by analogous procedures known to those skilled in the art. Resistant bacterial strains used for compound testing include methicillin-resistant S. aureus (MRSA), vancomycin resistant Enterococci (VRE) and various multi-drug resistant (MDR) strains commonly associated with hospital-acquired (nosocomial) infections, including, but not limited to A. baumannii, K. pnuemoniae, and E. cloacae.

[5] = test system: K. pneumoniae CDC0010 (MDR); assay: MIC against resistant strains, Tables 5a-5d; type: cell-based; conditions: Klebsiella pneumoniae, n = 3
Procedure: as §4

[6] = test system: P. aeruginosa 1674623 (MDR); assay: MIC against resistant strains, Tables 5a-5d; type: cell-based; conditions: Pseudomonas aeruginosa, n = 3
Procedure: as §4

[7] = test system: A. baumannii 1674627 (MDR); assay: MIC against resistant strains, Tables 5a-5d; type: cell-based; conditions: Acinetobacter baumannii, n = 3
Procedure: as §4

E. coli ATCC25922 (WT) = assay: MIC against resistant strains, Tables 5a-5d; type: cell-based; conditions: Escherichia coli, n = 3
Procedure: as §4

[8] = test system: A. baumannii CDC0290 (MDR); assay: MIC against resistant strains, Tables 5a-5d; type: cell-based; conditions: Acinetobacter baumannii, n = 3
Procedure: as §4

[9] = test system: S. aureus ATCC BAA-1717 (MRSA); assay: MIC against resistant strains, Tables 5a-5d; type: cell-based; conditions: Staphylococcus aureus, n = 3
Procedure: as §4

[10] = test system: K. pneumoniae ATCC BAA-2473 (MDR); assay: MIC against resistant strains, Tables 5a-5d; type: cell-based; conditions: Klebsiella pneumoniae, ATCCBAA2473, n = 3
Procedure: as §4

[11] = test system: E. cloacae 1744299 (ESBL); assay: MIC against resistant strains, Tables 5a-5d; type: cell-based; conditions: Enterobacter cloacae, n = 3
Procedure: as §4

[12] = test system: S. aureus ATCC 33591 (MRSA); assay: MIC against resistant strains, Tables 5a-5d; type: cell-based; conditions: Staphylococcus aureus, n = 3
Procedure: as §4

E. faecium 1674620 (VRE) = assay: MIC against resistant strains, Tables 5a-5d; type: cell-based; conditions: Enterococcus faecium, n = 3
Procedure: as §4

CCCCCC[N+](C)(C)CCCCCCOc1cc(/C=C/c2cc(OCCCCCC[N+](C)(C)CCCCCC)cc(OCCCCCC[N+](C)(C)CCCCCC)c2)cc(OCCCCCC[N+](C)(C)CCCCCC)c1 [Formula E] gave an IC50 (J774 (ATCC TIB-67) cells) of 2.5 mg/L, an IC50 [1] of 7.3 mg/L and an IC50 [2] of 10.4 mg/L. For the same compound, the MIC [3] was 8 mg/L, the MIC [4] was 8 mg/L and the MIC [5] was 4 mg/L. For the same compound, the MIC [6] was 8 mg/L, the MIC [7] was 4 mg/L and the MIC (E. coli ATCC25922 (WT)) was 1 mg/L. The MIC [8] was 4 mg/L, the MIC [9] was 0.5 mg/L and the MIC [10] was 2 mg/L. It also gave an MIC [11] of 2 mg/L, an MIC [12] of 0.5 mg/L and an MIC (E. faecium 1674620 (VRE)) of 0.25 mg/L.

For C[N+](C)(C)CCCCOc1cc(/C=C/c2ccc(/C=C/c3cc(OCCCC[N+](C)(C)C)cc(OCCCC[N+](C)(C)C)c3)cc2)cc(OCCCC[N+](C)(C)C)c1.[I-].[I-].[I-].[I-] [Formula F], the IC50 (J774 (ATCC TIB-67) cells) was > 128 mg/L, the IC50 [1] was > 1020 mg/L and the IC50 [2] was > 128 mg/L. For the same compound, the MIC [3] was 32 mg/L, the MIC [4] was > 64 mg/L and the MIC [5] was 64 mg/L. The MIC [6] was > 64 mg/L, the MIC [7] was 64 mg/L and the MIC (E. coli ATCC25922 (WT)) was 8 mg/L. For the same compound, the MIC [8] was 64 mg/L, the MIC [9] was 2 mg/L and the MIC [10] was 32 mg/L. The MIC [11] was 8 mg/L, the MIC [12] was 2 mg/L and the MIC (E. faecium 1674620 (VRE)) was 8 mg/L.
